The record followed here is US20100069323A1, “COMPOSITION FOR APPLICATION TO SKIN OR MUCOSA” (priority 2006, published 2010).

The data set deals with rabbit corneal epithelial cell line SIRC. Nature of the data set: Evaluation of cytotoxicity of prepared alginic acid (Cell Counting Kit-8 viable cell detection). Format: cell-based. The method, then: The test for toxicity of the alginic acid prepared above (Example 1 and Comparative Examples 1 and 2) to cells was carried out. First, an alginic acid solution was prepared by dissolving each alginic acid to a concentration of 0.2 or 2.0% (w/v) in a cell culture medium of medium 199 (GIBCO) supplemented with 10% (v/v) fetal bovine serum (Daiichi Kagaku Yakuhin). Then, rabbit corneal epithelial cell line SIRC (ATCC number: CCL-60) was plated at 2.0×10^5 cells/well in 48-well microtiter plate (Corning), and alginic acid solution prepared above was added to obtain a final concentration of 0.1 or 1.0% (w/v) of alginic acid, and the cells were subsequently cultured under the condition of 37° C., 5% CO2 and 90% relative humidity. […] After 1 hour, the absorbance (450 nm) of the dye developed by reacting with the viable cells was measured using a spectrophotometer (Thermo Electron). With the observed value of the absorbance, cell viability was calculated in the following equation, and the cytotoxicity of each alginic acid was evaluated.
Cell viability(%)=100×(absorbance of the group in which each alginic acid solution was added−absorbance of the medium containing a reagent for viable cell detection)/(absorbance of the control group−absorbance of the medium containing a reagent for viable cell detection) Equation 5
Background: Tetrazolium assays rely on reduction of a dye to a coloured formazan, in cell work by metabolically active cells.

With alginic acid [Comparative Example 2], the Cell viability result is listed as “about 5%”; the “microscopic observation of cells” value is “lost their adhesive capacity and floated”.
